{"source": "patent US20050209244A1", "about": "“N{5-[4-(4-methyl-piperazino-methyl)-benzoylamido]-2-methylphenyl}-4-(3-pyridyl)-2-pyrimidine-amine coated stents” (priority 2002, published 2005)", "key": {"[1]": {"details": "in conjunction with COMPOUND I", "excerpt": "Data points just spanning the IC50 of the agents alone or in combination are entered into the CalcuSyn program (CalcuSyn, Biosoft, Cambridge UK)."}, "[2]": {"target": "receptor for stem cell factor (Homo sapiens, UniProt P10721)", "details": "cited from earlier work"}, "[3]": {"target": "T1, Flt-3 (Homo sapiens, UniProt P36888)", "T1 sequence (P36888 27-993)": "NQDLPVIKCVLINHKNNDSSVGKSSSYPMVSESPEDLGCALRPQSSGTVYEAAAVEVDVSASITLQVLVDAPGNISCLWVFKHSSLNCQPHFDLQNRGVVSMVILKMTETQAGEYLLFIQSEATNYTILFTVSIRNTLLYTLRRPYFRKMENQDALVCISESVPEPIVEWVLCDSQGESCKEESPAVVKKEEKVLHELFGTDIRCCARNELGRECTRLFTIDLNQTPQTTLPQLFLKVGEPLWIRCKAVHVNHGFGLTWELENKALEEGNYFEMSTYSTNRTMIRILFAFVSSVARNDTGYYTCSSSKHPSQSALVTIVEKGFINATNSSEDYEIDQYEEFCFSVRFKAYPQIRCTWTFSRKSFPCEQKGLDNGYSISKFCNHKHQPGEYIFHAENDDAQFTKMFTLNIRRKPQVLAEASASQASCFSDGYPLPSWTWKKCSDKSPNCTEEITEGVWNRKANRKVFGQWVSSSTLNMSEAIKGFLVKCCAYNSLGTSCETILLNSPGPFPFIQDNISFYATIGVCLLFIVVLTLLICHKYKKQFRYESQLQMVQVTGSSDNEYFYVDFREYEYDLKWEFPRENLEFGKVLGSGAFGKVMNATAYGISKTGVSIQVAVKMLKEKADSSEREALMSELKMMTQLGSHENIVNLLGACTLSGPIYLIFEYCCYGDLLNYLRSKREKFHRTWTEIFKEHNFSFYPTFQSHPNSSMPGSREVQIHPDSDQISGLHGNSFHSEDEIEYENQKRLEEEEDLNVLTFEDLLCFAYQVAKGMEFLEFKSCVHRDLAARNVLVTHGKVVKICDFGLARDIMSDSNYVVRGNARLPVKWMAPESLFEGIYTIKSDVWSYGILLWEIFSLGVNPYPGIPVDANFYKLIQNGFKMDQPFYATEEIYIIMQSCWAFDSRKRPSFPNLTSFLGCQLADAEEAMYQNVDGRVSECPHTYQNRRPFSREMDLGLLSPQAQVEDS", "details": "cited from earlier work"}, "[4]": {"target": "Jak-2 (Homo sapiens, UniProt O60674)", "details": "cited from earlier work"}, "[5]": {"test_system": "neointimal lesion formation", "assay": "28 day rat carotid artery balloon injury model", "assay_type": "in vivo", "details": "for percent inhibition of neointimal lesion formation: 28 days post-balloon injury", "description": "Compounds of formula I are tested in the following rat model.\nRats are dosed orally with placebo or a compound of formula 1. Daily dosing starts 3 days prior to surgery and continues for 31 days. Rat carotid arteries are balloon injured using a method described by Clowes et al., Lab. Invest. 1983;49;208-215. Following sacrifice at 28 days post-balloon Injury, carotid arteries are removed and processed for histologic and morphometric evaluation."}, "[6]": {"test_system": "platelet-derived growth factor (PDGF) receptor", "details": "in vitro; cited from earlier work"}, "[7]": {"target": "Kdr (Homo sapiens, UniProt P35968)", "sequence (P35968 20-1356, species assumed)": "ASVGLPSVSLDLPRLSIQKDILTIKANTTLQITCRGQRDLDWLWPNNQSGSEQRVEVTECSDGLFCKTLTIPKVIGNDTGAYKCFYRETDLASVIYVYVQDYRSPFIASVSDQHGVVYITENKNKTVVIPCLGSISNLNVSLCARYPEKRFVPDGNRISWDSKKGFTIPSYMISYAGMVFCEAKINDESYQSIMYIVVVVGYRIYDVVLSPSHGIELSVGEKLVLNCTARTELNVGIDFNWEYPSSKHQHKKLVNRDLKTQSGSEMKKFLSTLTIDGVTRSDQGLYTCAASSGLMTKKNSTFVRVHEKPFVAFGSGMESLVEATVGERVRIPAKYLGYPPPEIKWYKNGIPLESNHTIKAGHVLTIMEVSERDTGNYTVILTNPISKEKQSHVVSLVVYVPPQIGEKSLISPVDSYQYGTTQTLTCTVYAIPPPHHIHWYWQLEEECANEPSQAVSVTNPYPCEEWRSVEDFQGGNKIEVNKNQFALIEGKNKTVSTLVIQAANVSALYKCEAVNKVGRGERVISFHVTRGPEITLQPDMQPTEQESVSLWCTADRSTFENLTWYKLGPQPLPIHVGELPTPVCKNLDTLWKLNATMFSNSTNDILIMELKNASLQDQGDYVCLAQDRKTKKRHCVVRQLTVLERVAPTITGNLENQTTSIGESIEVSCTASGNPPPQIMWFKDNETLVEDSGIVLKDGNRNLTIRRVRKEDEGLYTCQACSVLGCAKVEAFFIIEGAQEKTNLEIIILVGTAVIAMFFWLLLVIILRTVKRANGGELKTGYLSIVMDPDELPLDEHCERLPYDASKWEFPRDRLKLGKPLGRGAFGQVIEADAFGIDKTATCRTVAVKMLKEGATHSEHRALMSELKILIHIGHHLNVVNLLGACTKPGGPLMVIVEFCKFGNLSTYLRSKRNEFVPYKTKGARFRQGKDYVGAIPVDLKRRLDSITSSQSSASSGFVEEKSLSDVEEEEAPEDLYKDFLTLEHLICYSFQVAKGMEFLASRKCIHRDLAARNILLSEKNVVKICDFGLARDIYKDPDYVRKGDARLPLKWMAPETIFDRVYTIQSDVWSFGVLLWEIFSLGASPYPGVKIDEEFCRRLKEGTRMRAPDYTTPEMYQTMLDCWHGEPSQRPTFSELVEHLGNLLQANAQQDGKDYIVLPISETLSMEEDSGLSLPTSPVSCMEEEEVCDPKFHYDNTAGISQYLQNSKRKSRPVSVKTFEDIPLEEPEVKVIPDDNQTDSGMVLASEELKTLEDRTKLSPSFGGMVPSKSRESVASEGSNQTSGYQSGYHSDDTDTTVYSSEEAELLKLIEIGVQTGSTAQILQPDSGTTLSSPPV", "details": "cited from earlier work"}, "[8]": {"target": "Flt-1 (Homo sapiens, UniProt P17948)", "details": "cited from earlier work"}, "[9]": {"test_system": "restenotic lesion formation", "assay": "Rabbit iliac stent model, restenosis at 28 days", "assay_type": "in vivo, New Zealand White rabbit", "description": "A combined angioplasty and stenting procedure is performed in New Zealand White rabbit iliac arteries. Iliac artery balloon injury is performed by inflating a 3.0×9.0 mm angioplasty balloon in the mid-portion of the artery followed by “pull-back” of the catheter for 1 balloon length. Balloon injury is repeated 2 times, and a 3.0×12 mm stent is deployed at 6 atm for 30 seconds in the iliac artery. Balloon injury and stent placement is then performed on the contralateral iliac artery in the same manner. A post-stent deployment angiogram is performed. All animals receive oral aspirin 40 mg/day daily as anti-platelet therapy and are fed standard low-cholesterol rabbit chow. Twenty-eight days after stenting, animals are anesthetized and euthanized and the arterial tree is perfused at 100 mmHg with lactated Ringer's for several minutes, then perfused with 10% formalin at 100 mmHg for 15 minutes. The vascular section between the distal aorta and the proximal femoral arteries is excised and cleaned of periadventitial tissue. The stented section of artery is embedded in plastic and sections are taken from the proximal, middle, and distal portions of each stent. All sections are stained with hematoxylin-eosin and Movat pentachrome stains. Computerized planimetry is performed to determine the area of the internal elastic lamina (IEL), external elastic lamina (EEL) and lumen. The neointima and neointimal thickness is measured both at and between the stent struts. The vessel area is measured as the area within the EEL. Data are expressed as mean±SEM. Statistical analysis of the histologic data is accomplished using analysis of variance (ANOVA) due to the fact that two stented arteries are measured per animal with a mean generated per animal. A P<0.05 is considered statistically significant.\nCOMPOUND is administered orally by gavage at 30 mg/kg once daily from 3 days prior to stenting until day 27 post-stenting. […] There is extensive neointimal formation in placebo-treated animals at 28 days, with the lesions consisting of abundant smooth muscle cells in proteoglycan/collagen matrix and apparent full endothelial healing. In arterial segments from the animals treated with COMPOUND I, the Intima is well healed, characterized by a compact neointima consisting of smooth muscle cells and endothelium fully covering the lumen surface both over stent struts and between struts."}, "[10]": {"target": "α-PDGF receptor (Homo sapiens, UniProt P16234)", "details": "cited from earlier work"}, "[11]": {"target": "β-PDGF receptor (Homo sapiens, UniProt P09619)", "sequence (P09619 33-1106)": "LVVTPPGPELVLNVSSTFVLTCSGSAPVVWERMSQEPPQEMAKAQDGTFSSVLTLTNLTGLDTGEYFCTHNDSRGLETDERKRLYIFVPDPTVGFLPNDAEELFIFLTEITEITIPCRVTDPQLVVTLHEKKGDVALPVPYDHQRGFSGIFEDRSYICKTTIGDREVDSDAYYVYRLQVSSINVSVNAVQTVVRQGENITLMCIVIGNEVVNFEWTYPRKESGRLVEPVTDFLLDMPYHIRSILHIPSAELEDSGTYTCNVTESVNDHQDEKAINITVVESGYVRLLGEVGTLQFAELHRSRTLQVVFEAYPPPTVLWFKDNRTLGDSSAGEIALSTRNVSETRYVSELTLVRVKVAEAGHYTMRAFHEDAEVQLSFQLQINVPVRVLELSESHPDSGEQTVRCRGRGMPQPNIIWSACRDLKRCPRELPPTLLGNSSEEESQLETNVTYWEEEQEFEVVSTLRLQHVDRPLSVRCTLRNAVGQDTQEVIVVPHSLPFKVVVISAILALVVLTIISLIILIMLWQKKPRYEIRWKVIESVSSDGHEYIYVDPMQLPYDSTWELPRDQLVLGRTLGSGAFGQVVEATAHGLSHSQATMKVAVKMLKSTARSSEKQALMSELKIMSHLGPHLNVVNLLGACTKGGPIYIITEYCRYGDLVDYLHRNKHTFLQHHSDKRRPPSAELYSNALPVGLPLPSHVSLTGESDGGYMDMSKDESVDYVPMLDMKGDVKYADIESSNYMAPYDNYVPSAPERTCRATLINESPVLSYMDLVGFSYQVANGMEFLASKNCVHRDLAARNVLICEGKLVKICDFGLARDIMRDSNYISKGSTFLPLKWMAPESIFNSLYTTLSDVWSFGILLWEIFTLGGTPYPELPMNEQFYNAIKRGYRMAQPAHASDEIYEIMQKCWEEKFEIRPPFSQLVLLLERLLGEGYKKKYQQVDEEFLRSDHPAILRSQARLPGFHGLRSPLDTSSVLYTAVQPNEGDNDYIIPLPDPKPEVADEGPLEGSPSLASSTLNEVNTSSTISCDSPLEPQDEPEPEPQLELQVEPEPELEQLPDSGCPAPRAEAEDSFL", "details": "cited from earlier work"}, "[12]": {"target": "Tek (Homo sapiens, UniProt Q02763)", "sequence (Q02763 23-1124, species assumed)": "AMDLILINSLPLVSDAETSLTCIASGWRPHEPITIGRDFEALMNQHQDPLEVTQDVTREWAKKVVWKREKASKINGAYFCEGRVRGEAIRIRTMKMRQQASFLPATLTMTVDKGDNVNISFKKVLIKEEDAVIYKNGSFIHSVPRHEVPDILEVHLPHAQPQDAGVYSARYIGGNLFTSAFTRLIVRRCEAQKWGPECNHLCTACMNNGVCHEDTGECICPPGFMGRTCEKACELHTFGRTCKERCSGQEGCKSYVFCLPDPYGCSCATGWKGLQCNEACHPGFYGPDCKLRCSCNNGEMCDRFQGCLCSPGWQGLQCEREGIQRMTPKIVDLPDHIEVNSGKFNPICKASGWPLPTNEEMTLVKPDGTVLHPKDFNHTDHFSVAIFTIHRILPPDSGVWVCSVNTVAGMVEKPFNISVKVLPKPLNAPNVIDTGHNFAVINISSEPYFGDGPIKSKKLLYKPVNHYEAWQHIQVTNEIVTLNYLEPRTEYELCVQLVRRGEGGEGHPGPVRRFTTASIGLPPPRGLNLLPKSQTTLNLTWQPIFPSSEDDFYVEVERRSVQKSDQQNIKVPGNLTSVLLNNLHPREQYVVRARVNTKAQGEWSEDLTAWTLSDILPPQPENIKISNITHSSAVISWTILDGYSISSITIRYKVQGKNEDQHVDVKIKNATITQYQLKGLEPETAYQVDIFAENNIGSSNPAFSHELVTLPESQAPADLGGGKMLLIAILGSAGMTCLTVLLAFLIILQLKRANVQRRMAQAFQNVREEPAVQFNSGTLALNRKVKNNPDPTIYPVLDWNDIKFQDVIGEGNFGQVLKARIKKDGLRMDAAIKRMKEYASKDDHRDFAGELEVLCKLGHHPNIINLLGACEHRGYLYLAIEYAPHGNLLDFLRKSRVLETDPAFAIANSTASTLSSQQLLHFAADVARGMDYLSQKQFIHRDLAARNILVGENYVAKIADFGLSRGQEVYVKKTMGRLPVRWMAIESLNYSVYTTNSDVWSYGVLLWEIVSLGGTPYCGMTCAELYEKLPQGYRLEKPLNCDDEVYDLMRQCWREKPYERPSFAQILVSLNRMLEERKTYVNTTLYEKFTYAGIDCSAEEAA", "details": "cited from earlier work"}, "[13]": {"target": "c-Met (Homo sapiens, UniProt P08581)", "sequence (P08581 25-1390)": "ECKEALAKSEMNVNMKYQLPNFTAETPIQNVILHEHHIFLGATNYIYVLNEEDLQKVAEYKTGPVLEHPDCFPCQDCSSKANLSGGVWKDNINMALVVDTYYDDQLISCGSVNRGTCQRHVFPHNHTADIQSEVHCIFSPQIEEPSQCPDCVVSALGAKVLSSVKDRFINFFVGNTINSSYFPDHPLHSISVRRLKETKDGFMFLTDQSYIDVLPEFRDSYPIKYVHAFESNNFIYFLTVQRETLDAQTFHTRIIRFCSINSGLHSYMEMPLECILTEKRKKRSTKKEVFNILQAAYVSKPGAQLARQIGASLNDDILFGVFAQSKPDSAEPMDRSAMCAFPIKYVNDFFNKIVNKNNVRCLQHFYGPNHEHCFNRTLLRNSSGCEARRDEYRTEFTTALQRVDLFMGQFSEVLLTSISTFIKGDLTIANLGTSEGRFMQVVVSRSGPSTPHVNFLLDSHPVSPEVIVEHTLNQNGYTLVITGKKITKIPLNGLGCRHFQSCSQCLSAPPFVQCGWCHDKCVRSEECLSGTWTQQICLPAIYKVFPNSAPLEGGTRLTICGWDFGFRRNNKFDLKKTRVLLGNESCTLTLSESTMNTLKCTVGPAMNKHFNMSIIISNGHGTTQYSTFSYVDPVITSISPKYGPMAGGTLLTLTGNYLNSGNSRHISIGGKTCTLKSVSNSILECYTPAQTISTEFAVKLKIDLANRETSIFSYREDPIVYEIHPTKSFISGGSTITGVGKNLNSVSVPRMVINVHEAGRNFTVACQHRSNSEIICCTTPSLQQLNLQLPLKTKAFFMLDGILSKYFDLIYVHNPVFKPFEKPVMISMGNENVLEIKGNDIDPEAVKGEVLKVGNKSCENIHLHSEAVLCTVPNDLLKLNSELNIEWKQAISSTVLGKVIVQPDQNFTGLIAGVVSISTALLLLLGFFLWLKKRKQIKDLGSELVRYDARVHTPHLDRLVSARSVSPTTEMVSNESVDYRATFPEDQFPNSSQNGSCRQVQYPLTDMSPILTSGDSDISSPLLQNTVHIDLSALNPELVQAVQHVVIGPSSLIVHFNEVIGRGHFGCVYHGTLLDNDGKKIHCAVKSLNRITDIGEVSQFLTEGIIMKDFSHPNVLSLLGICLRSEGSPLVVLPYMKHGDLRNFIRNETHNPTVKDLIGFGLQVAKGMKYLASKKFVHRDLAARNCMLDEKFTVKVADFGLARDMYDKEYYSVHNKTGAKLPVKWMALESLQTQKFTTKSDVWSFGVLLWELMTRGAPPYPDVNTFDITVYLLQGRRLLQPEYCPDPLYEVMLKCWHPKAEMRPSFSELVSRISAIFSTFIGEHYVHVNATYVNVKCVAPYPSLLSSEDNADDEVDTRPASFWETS", "details": "cited from earlier work"}, "[14]": {"details": "30 mg/kg orally once daily, 28 days after stenting"}}, "data": [{"smiles": "COc1cccc2c1C(=O)c1c(O)c3c(c(O)c1C2=O)C[C@@](O)(C(=O)CO)C[C@@H]3O[C@H]1C[C@H](N)[C@H](O)[C@H](C)O1", "note": "[doxorubicin]", "values": [{"measurement": "interaction with COMPOUND I in combination", "setting": "[1]", "result": "Slight synergism or synergy"}]}, {"smiles": "CC[C@]1(O)C[C@@H]2CN(CCc3c([nH]c4ccccc34)[C@@](C(=O)OC)(c3cc4c(cc3OC)N(C)[C@H]3[C@@](O)(C(=O)OC)[C@H](OC(C)=O)[C@]5(CC)C=CCN6CC[C@]43[C@@H]65)C2)C1", "note": "[Vinblastine, vinblastine]", "values": [{"measurement": "interaction with COMPOUND I in combination", "setting": "[1]", "result": "Slight synergism or synergy"}]}, {"smiles": "CC(=O)O[C@H]1C(=O)[C@@]2(C)[C@H]([C@H](OC(=O)c3ccccc3)[C@]3(O)C[C@H](OC(=O)[C@H](O)[C@@H](NC(=O)c4ccccc4)c4ccccc4)C(C)=C1C3(C)C)[C@]1(OC(C)=O)CO[C@@H]1C[C@@H]2O", "note": "[Taxol, taxol]", "values": [{"measurement": "interaction with COMPOUND I in combination", "setting": "[1]", "result": "Slight synergism or synergy"}]}, {"smiles": "Cc1ccc(NC(=O)c2ccc(CN3CCN(C)CC3)cc2)cc1Nc1nccc(-c2cccnc2)n1", "note": "[COMPOUND I, N-{5-[4-(4-methyl-piperazino-methyl)-benzoylamido]-2-methylphenyl}-4-(3-pyridyl)-2-pyrimidine-amine]", "values": [{"measurement": "inhibition of kinase activity of the receptor for stem cell factor", "setting": "[2]", "result": "potently inhibit"}, {"measurement": "inhibition of kinase activity of Flt-3", "setting": "[3]", "result": "not"}, {"measurement": "inhibition of Jak-2", "setting": "[4]", "result": "no inhibition"}, {"measurement": "percent inhibition of neointimal lesion formation", "setting": "[5]; 0.5 mg/kg oral daily", "result": 17, "unit": "%"}, {"measurement": "percent inhibition of neointimal lesion formation", "setting": "[5]; 2.0 mg/kg oral daily", "result": 37, "unit": "%"}, {"measurement": "neointimal lesion formation at 28 days following balloon injury", "setting": "[5]; oral daily, dose of from 0.2 to 3.5 mg, preferably 0.5 to 2.0 mg/kg", "result": "significantly reduce"}, {"measurement": "inhibition of PDGF receptor tyrosine kinase", "setting": "[6]", "result": "selectively inhibits"}, {"measurement": "inhibition of kinase activity of Kdr", "setting": "[7]", "result": "not"}, {"measurement": "inhibition of kinase activity of Flt-1", "setting": "[8]", "result": "not"}, {"measurement": "EEL area compared with control", "setting": "[9]; [14]", "result": "did not result in differences"}, {"measurement": "intima healing in arterial segments", "setting": "[9]; [14]", "result": "well healed"}, {"measurement": "reduction in average neointimal thickness", "setting": "[9]; 30 mg/kg orally once daily, 28 days after stenting, vs placebo, P<0.0001", "result": 29, "unit": "%"}, {"measurement": "reduction in percent arterial stenosis", "setting": "[9]; 30 mg/kg orally once daily, 28 days after stenting, vs placebo, P<0.0002", "result": 17, "unit": "%"}, {"measurement": "reduction in neointimal area", "setting": "[9]; 30 mg/kg orally once daily, 28 days after stenting, vs placebo, P<0.04", "result": 17, "unit": "%"}, {"measurement": "fibrin deposit", "setting": "[9]; rabbit iliac arteries, in-stent", "result": "reduced"}, {"measurement": "inhibition of kinase activity of α-PDGF receptor", "setting": "[10]", "result": "potently inhibit"}, {"measurement": "inhibition of kinase activity of β-PDGF receptor", "setting": "[11]", "result": "potently inhibit"}, {"measurement": "inhibition of kinase activity of Tek", "setting": "[12]", "result": "not"}, {"measurement": "inhibition of c-Met", "setting": "[13]", "result": "no inhibition"}]}]}
